Source: patent publication US20120189670A1, “PHARMACEUTICAL COMPOSITIONS AND FORMULATIONS INCLUDING INHIBITORS OF THE PLECKSTRIN HOMOLOGY DOMAIN AND METHODS FOR USING SAME” (priority 2009, published 2012)
In brackets after ≈: the same amount, converted by molar mass. Like-named read-outs stand apart in the source and are kept apart here.

Experiments:
[1] = biological target: T1, AKT (phospho-Ser^473 AKT) in NIH3T3 cells (Mus musculus, UniProt P31750); assay: Inhibition of phospho-Ser473 AKT in NIH3T3 cells; type: cell-based
T1 construct: endogenous in cells; host or cells: NIH3T3
Method: […]. […] AKT activity was measured by Western blotting using anti-phosphoSer437 AKT antibody. Downstream targets of AKT were detected also by Western blotting using specific anti-phospho antibodies and anti-actin was used as a loading control.

[2] = Metabolic stability, incubation with HT-29 cells; type: in vitro ADME; settings: human
Excerpt: Compound 6 was too insoluble to obtain data.

Solubility (Table 11) = type: physicochemical
[3] = Pharmacokinetics of compound 316 in scid mice; type: in vivo, mouse
[4] = type: in vivo
[5] = biological target: AKT (phospho-Ser-AKT) in HT-29 xenograft tumors (Homo sapiens, UniProt P31749); assay: Tumor phospho-Ser-AKT in HT-29 xenografts; type: in vivo, mouse; settings: 4 hours after a single 250 mg/kg dose
[6] = tested on: Panc-1 pancreatic cell line; assay: MTT cell survival, Panc-1; type: cell-based; settings: Homo sapiens; Panc-1, MTT
[7] = tested on: MiaPaca-2 pancreatic cell line; assay: MTT cell survival, MiaPaca-2; type: cell-based; settings: Homo sapiens, MIA PaCa-2; MiaPaca-2, MTT
Excerpt: (§1) AKT inhibition leads to cellular apoptosis.

AKT PH domain [8] = biological target: T2, AKT PH domain (Homo sapiens, UniProt P31749); assay: SPR direct binding (Biacore 2000), KD; design: made in house; settings: purified AKT PH domain
Method: (§2) Binding assays using SPR and an ELISA competitive binding assay were used to measure the binding affinity (KD) of the compounds to all three PH domains. SPR was carried out as described above. […] Purified GST-PH domains were incubated with increasing concentrations of the compounds under analysis for about 4 hours in 0.2 M carbonate buffer pH 9.4 and were added to the 96-well plate and incubated overnight at 4° C. Following incubation, the plate was washed 4 times with phosphate buffered 0.9% NaCl (PBS), blocked with 3% bovine serum albumin (BSA) in PBS and 0.01% Tween for 1 hour, washed again 4 times with PBS and mouse monoclonal anti-glutathione-S-transferase antibody in 3% BSA (1:2000) was added for 1 hr at room temperature with shaking. The plate was washed 4 times with PBS and an anti-mouse IgG horseradish peroxidase coupled antibody (dilution 1:2000 in 3% BSA) was added for 1 hr. After 4 washes with PBS, 2,2′-azinobis[3-ethylbenzothiazoline-6-sulfonic acid]-diammonium salt (ABST) was added and the reaction was allowed to develop for 30 min.

PH domain of PDK1 = biological target: T3, PH domain of PDK1 (Homo sapiens, UniProt O15530); assay: SPR direct binding, KD, PDK1 PH domain; settings: Table 10, SPR; read-out: PDK1 PH mKD
T3 sequence (O15530 459-550 limits assumed): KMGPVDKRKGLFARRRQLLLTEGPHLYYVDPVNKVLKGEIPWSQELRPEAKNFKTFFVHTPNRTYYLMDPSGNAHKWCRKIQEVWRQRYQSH
Method: as §2

IRS1 PH domain = biological target: T4, IRS1 PH domain (Homo sapiens, UniProt P35568); assay: SPR direct binding, KD, IRS1 PH domain; settings: Table 10, SPR
T4 sequence (P35568 12-115 limits assumed): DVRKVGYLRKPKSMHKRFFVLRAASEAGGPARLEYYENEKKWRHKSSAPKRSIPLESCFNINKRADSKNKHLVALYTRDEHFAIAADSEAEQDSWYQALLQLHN
Method: as §2

[9] = biological target: T5, AKT (phospho-Ser^473 AKT) in HT-29 colon cancer cells (Homo sapiens, UniProt P31749); assay: Inhibition of phospho-Ser473 AKT in HT-29 colon cancer cells (Table 11); type: cell-based; settings: human HT-29 colon cancer cells
T5 construct: endogenous in cells; host or cells: HT-29
Method: AKT activity was measured by Western blotting using anti-phosphoSer437 AKT antibody. Downstream targets of AKT were detected also by Western blotting using specific anti-phospho antibodies and anti-actin was used as a loading control.
AKT activity was measured by Western blotting using anti-phospho-[…] AKT antibody, PDK activity by anti-phospho-Ser241 PDK antibody as well as downstream target PKC using pan-phospho PKC antibodies. Anti-actin was used as a loading control.

[10] = Cytotoxicity in HT-29 cells; type: cell-based, human; settings: human
HT-29 cells = assay: Cytotoxicity in HT-29 cells; type: cell-based, human
[11] = biological target: T6, AKT (phospho-Ser^473-AKT) in HT-29 lung cancer cells (Homo sapiens, UniProt P31749); assay: Western blot phospho-Ser473-AKT in HT-29 cells (Table 2); type: cell-based; settings: read-out: AKT inhibition (IC50)
T6 construct: endogenous in cells; host or cells: HT-29
Excerpt: as §1

HT-29 lung cancer cells = assay: MTT cell survival in HT-29 cells (Table 2); type: cell-based; settings: Homo sapiens
[12] = tested on: MiaPaca-2 pancreatic cell line; assay: Apoptosis, morphological assay, MiaPaca-2; type: cell-based, human; settings: MiaPaca-2, 20 μmol/L
Excerpt: as §1

SKOV-3 ovarian cancer = assay: Antitumor activity, oral gavage, SKOV-3 xenograft; type: in vivo, mouse; settings: SKOV-3, 250 mg/kg BID × 10 D oral
[13] = pH solubility profile / pKa; type: physicochemical; settings: aqueous buffer solutions, from pH-solubility profile
Method: These samples were then rotated at room temperature for 24 hours. After rotation, if there was no evidence of precipitated compound, additional compound 104 was added and the dissolution processes were repeated. […] HPLC Assay. […] The run time was 5 minutes and the injection volume was 2 μL.

AKT PH domain [14] = biological target: T2, AKT PH domain; settings: purified AKT PH domain, SPR
[15] = HT-29 cell culture conditions, read-out: half lives under cell culture conditions
[16] = incubating with HT-29 cells at maximum DMEM concentration at 37° C., read-out: Metabolic half life

T1 sequence (P31750 whole entry): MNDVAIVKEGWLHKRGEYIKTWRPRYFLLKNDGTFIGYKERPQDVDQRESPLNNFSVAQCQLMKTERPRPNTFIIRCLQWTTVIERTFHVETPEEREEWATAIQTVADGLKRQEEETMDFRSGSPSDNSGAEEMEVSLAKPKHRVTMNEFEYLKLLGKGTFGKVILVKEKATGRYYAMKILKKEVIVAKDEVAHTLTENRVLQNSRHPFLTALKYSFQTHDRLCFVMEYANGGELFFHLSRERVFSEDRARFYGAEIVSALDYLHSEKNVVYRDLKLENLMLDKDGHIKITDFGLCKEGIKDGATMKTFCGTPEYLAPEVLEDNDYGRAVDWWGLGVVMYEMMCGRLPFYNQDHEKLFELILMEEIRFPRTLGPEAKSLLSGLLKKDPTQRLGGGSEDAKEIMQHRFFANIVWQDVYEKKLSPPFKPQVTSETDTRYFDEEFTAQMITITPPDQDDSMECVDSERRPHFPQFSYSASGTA
T2 sequence (P31749 5-108 limits assumed): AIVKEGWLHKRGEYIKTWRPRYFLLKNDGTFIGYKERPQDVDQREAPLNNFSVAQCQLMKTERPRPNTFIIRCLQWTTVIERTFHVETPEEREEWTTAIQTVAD
T5 sequence (P31749 whole entry): as the sequence (P31750 whole entry) above, with N2S, S50A, A100T, R112K, T117E, T389K, N410G, D415H counted along it
Chain of AKT (phospho-Ser-AKT) in HT-29 xenograft tumors (P31749 whole entry): as the sequence (P31750 whole entry) above, with N2S, S50A, A100T, R112K, T117E, T389K, N410G, D415H counted along it
T6 sequence (P31749 whole entry): as the sequence (P31750 whole entry) above, with N2S, S50A, A100T, R112K, T117E, T389K, N410G, D415H counted along it

CC1=NN(C(=O)c2ccc(Cl)cc2)C(=O)C1/N=N/c1ccc(S(=O)(=O)Nc2ncccn2)cc1 (stereo not drawn) [Compound 316, (E)-4-((1-(4-chlorobenzoyl)-3-methyl-5-oxo-4,5-dihydro-1H-pyrazol-4-yl)diazenyl)-N-(pyrimidin-2-yl)benzenesulfonamide]
IC50 [1]: 4 µM
half-life [2, 15]: 1 to 2 h
half-life [2, 16]: 1.03 h
solubility (Solubility (Table 11)): 17.9 µM (≈ 8.91 µg/mL)
peak plasma concentration ([3]; single dose 250 mg/kg i.p.): 1.4 nM
peak plasma concentration ([3]; single dose 250 mg/kg oral): 600 nM
toxicity of repeated doses ([4]; five daily doses of 250 mg/kg i.p.): moderate neutropenia
toxicity of a single dose ([4]; single dose of up to 250 mg/kg i.p.): no toxicity
tumor phospho-Ser-AKT [5]: inhibition of tumor phospho-Ser-AKT was observed

CC(=O)Nc1ccc(S(=O)(=O)Nc2nncs2)cc1 [Compound 102, N-(4-(N-1,3,4-Thiadiazol-2-ylsulfamoyl)phenyl)acetamide]
IC50 [6]: > 100 µM
IC50 [7]: > 100 µM
KD (AKT PH domain [8]): did not appear to bind

CC1=NN(C(=O)c2ccc(O)cc2)C(=O)C1/N=N/c1ccc(S(=O)(=O)Nc2ncccn2)cc1 (stereo not drawn) [Compound 360]
Kd (PH domain of PDK1): 0.42 µM
1RS1 PH mKD (IRS1 PH domain): low KD
Kd (IRS1 PH domain; read-out: 1RS1 PH mKD): 1.74 ± 0.41 µM
IC50 [1]: 5 µM
IC50 [9]: > 20 µM
IC50 [10]: > 100 µM
Cytotoxicity (IC50 μM) (HT-29 cells): no cytotoxicity
half-life [2, 15]: 1 to 2 h
half-life [2, 16]: 2.3 h
solubility (Solubility (Table 11)): 13.1 µM (≈ 6.28 µg/mL)

O=C(O)c1ccccc1C(=O)Nc1ccccc1SCCS(=O)(=O)c1ccc(Cl)cc1 [Compound 389]
IC50 [11]: 5 µM
IC50 (HT-29 lung cancer cells): > 100 µM

CCCCCCCCCCCCc1ccc(S(=O)(=O)Nc2nncs2)cc1 [Compound 104, 4-Dodecyl-N-(1,3,4-thiadiazol-2-yl)benzenesulfonamide]
Apoptosis at 20 μmol/L [12]: 31.3 ± 1.6%
Growth rate (SKOV-3 ovarian cancer): 122 ± 16 mm^3/10 days
T/C (SKOV-3 ovarian cancer): 28.3%
pKa ([13]; read-out: acidic pKa): 7.9 to 8.3
pKa ([13]; read-out: additional pKa): > 9

CCCCCCCC(=O)OC[C@H](COP(=O)(O)O[C@H]1[C@H](O)[C@@H](OP(=O)(O)O)[C@H](OP(=O)(O)O)[C@@H](OP(=O)(O)O)[C@H]1O)OC(=O)CCCCCCC [diC8-PtdIns(3,4,5)P3]
Ki (AKT PH domain [14]): ~0.3 µM
